Experimental data: patent US20220241333A1, “MODULATION OF T CELL CYTOTOXICITY AND RELATED THERAPY” (Cancer Research Technology Limited, priority 2019, published 2022)

Columns and labels:
human naive CD4+ T cells = experiment: GzmB expression in aCD3/aCD28-stimulated human naive CD4+ T cells; format: cell-based; settings: blockade of IL-2R signalling with anti-human CD25
Description: FACS-purified human CD4^+ T cells were cultured in RPMI complete medium with irradiated autologous feeders cells in 1:1 ratio for 96 h, stimulated with aCD3 (OKT3) and aCD28 (9.3; BioXcell). To some wells anti-CD25 antibody (Basiliximab; Novartis) was added 48 hours post aCD3/CD28 stimulation.

Bcl6 = Bcl6 (Homo sapiens, UniProt P41182); settings: compared with BI-3802; cited from earlier work
[1] = system: human CD4+ effector T cells; experiment: GZMB expression in human CD4+ effector T cells (PBMCs) treated with Bcl6 targeting drugs (flow cytometry); format: cell-based; settings: 100 nM, 72 h, low dose αCD3 0.5 ug/ml
Description: (§1) Healthy donor human PBMCs were labelled with CellTrace Violet (ThermoFisher) according to manufacturer's protocol and cultured in RPMI media supplemented with 10% fetal bovine serum, 100 U/mL penicillin, 100 ug/ml streptomycin and 2 mM L-glutamine for 72 h. Cells were either left unstimulated or stimulated with αCD3 (clone OKT3) at a final concentration of 0.5 ug/ml. Cells were additionally treated with Bcl6 targeting drugs, or with a control compound (BI-5273), at a final concentration of 100 nM. Cells were stained for flow cytometry using a fixable viability dye (eBiosciences) and with directly conjugated antibodies against human CD3, CD4, CD8, FoxP3, CD25, GzmB, and Bcl6 using the FoxP3 Transcription factor staining Buffer set (ThermoFisher) according to the manufacturer's instructions.

human CD8+ T cells = experiment: GZMB and BCL6 expression in human CD8+ T cells (PBMCs) treated with Bcl6 targeting drugs (flow cytometry); format: cell-based; settings: 100 nM, 72 h, low dose αCD3 0.5 ug/ml; compared to control compound BI-5273
Description: as §1

CD4+ effector T cells = experiment: GZMB expression in mouse CD4+ effector T cells treated with Bcl6 degrader (flow cytometry); format: cell-based; settings: 10 nM, 72 h, low dose αCD3+αCD28 0.1 ug/ml
Description: Spleens and lymph nodes were taken from C57BL/6J mice, and processed through a 70 μm mesh using PBS, followed by red blood cell lysis using Red Blood cell lysis buffer (Sigma) according to the manufacturer's protocol. Lymphocytes were labelled with CellTrace Violet (ThermoFisher) according to manufacturer's protocol and cultured in RPMI media supplemented with 10% fetal bovine serum, 100 U/mL penicillin, 100 ug/ml streptomycin and 2 mM L-glutamine for 72 h. Cells were either left unstimulated or stimulated with αCD3 (clone 2C11, BioXcell) and αCD28 (clone 37.51, BioXcell) at 0.1 ug/ml. Cells were additionally treated with a Bcl6 degrader (BI-3802) or with a control compound (BI-5273), at a final concentration of 10 nM. […] Cells were stained for flow cytometry using a fixable viability dye (eBiosciences) and with directly conjugated antibodies against CD3, CD4, CD8, FoxP3, CD25, GzmB, PD-1 and Bcl6 using the FoxP3 Transcription factor staining Buffer set (ThermoFisher) according to the manufacturer's instructions.

[2] = system: CD4+ Trp1 and OT-II T cells; experiment: GzmB upregulation in CD4+ Trp1 and OT-II TCR Tg T cells stimulated in vitro with antigen and cytokines; format: cell-based, mouse; settings: low antigen concentration (0.01 μM OVA peptide), comparison of CGAMMA chain cytokines
Description: Purified CD4+ T cells (CD4 T cells beads, Miltenyi or CD4 Dyna Beads, Invitrogen) were cultured in RPMI complete medium (as above) together with DC and irradiated feeder cells (40 Gy) in 2:1:1 ratio for 72 or 96 h. Polyclonal CD4+ T cells were stimulated with anti-CD3 (2C11) and anti-CD28 (37.51) (BioXcell); OT-II cells with OVA peptide (Pepscan) and Trp-1 cells with Trp-1 peptide (Pepscan) at concentration indicated in figure legend. Mouse CD4 T cells were cultured with aCD25 (PC61) and aIL-2 (JES6-1A12, BioXcell).
We therefore evaluated the potential contribution of CGAMMA receptor cytokines to the upregulation of GzmB in tumour-reactive CD4^+ T cells.

[3] = compared to control compound BI-5273
[4] = relative to control compound BI-5273

Basiliximab
GzmB expression (human naive CD4+ T cells): significantly reduced GzmB expression to levels below those of the untreated control sample

C[C@@H]1C[C@H](C)CN(c2ncc(Cl)c(Nc3ccc4c(c3)cc(OC(C)(C)C(=O)O)c(=O)n4C)n2)C1 [BI-5273]
Bcl6 inhibitor activity (Bcl6): significantly reduced Bcl6 inhibitor activity

C[C@@H]1CN(c2ncc(Cl)c(Nc3ccc4c(c3)n(CCC(C)(C)O)c(=O)n4C)n2)C[C@H](C)C1(F)F [CCT369260, 5-((5-chloro-2-((3R,5S)-4,4-difluoro-3,5-dimethylpiperidin-1-yl)pyrimidin-4-yl)amino)-3-(3-hydroxy-3-methylbutyl)-1-methyl-1,3-dihydro-2H-benzo[d]imidazol-2-one]
Mean fluorescence intensity (MFI) of GZMB in human CD4+ effector T cells [1, 3]: increased GZMB expression
Percentage of human CD4+ effector T cells that express GZMB [1, 4]: significantly greater percentage
Percentage of human CD8+ T cells that express BCL6 (human CD8+ T cells): significantly lower percentage
Percentage of human CD8+ T cells that express GZMB (human CD8+ T cells): A decrease, although not statistically significant

CNC(=O)COc1cc2cc(Nc3nc(N4C[C@H](C)C[C@H](C)C4)ncc3Cl)ccc2n(C)c1=O [BI-3802]
Mean fluorescence intensity of GZMB in CD4+ effector T cells (CD4+ effector T cells; [3]): increased GZMB expression
Percentage of CD4+ effector T cells that express GZMB (CD4+ effector T cells; [4]): significantly greater percentage

B1: IL-7: cytokine (Peprotech) added to T cell cultures (protein, UniProt P13232 26-177, looked up)
Interleukin-7: DCDIEGKDGKQYESVLMVSIDQLLDSMKEIGSNCLNNEFNFFKRHICDANKEGMFLFRAARKLRQFLKMNSTGDFDLHLLKVSEGTTILLNCTGQVKGRKPAALGEAQPTKSLEENKSLKEQKKLNDLCFLKRLLQEIKTCWNKILMGTKEH
Induction of GzmB [2]: at a much lower level
